SMILES strings stand for the structures.

For assay [1], the system named is rhIFNγ stimulated STAT-3 phosphorylation in the A549 human epithelial cell line. The experiment in a line: A549 Cell Assay: Inhibition of pSTAT3. The assay is classed as cell-based. The settings on record: Homo sapiens; A549 cells. In a few lines:
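A549 cells cultured 18 h were preincubated 1 h at 37° C with compound (0.3 nM to 10 μM, 0.1% DMSO) in DMEM with 0.2% BSA, then stimulated with 20 ng/mL rhIFNγ for 30 min. pSTAT3 Tyr705 in the lysates was measured by MSD immunoassay and expressed as percent inhibition.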

The target of a further assay is TYK2 (Homo sapiens (Human), UniProt P29597). Nature of the assay: JAK Caliper Enzyme Assay at 1 mM ATP (TYK2). To be noted: Caliper assay at 1 mM ATP. Format: biochemical.
Sequence of TYK2 (P29597 whole entry): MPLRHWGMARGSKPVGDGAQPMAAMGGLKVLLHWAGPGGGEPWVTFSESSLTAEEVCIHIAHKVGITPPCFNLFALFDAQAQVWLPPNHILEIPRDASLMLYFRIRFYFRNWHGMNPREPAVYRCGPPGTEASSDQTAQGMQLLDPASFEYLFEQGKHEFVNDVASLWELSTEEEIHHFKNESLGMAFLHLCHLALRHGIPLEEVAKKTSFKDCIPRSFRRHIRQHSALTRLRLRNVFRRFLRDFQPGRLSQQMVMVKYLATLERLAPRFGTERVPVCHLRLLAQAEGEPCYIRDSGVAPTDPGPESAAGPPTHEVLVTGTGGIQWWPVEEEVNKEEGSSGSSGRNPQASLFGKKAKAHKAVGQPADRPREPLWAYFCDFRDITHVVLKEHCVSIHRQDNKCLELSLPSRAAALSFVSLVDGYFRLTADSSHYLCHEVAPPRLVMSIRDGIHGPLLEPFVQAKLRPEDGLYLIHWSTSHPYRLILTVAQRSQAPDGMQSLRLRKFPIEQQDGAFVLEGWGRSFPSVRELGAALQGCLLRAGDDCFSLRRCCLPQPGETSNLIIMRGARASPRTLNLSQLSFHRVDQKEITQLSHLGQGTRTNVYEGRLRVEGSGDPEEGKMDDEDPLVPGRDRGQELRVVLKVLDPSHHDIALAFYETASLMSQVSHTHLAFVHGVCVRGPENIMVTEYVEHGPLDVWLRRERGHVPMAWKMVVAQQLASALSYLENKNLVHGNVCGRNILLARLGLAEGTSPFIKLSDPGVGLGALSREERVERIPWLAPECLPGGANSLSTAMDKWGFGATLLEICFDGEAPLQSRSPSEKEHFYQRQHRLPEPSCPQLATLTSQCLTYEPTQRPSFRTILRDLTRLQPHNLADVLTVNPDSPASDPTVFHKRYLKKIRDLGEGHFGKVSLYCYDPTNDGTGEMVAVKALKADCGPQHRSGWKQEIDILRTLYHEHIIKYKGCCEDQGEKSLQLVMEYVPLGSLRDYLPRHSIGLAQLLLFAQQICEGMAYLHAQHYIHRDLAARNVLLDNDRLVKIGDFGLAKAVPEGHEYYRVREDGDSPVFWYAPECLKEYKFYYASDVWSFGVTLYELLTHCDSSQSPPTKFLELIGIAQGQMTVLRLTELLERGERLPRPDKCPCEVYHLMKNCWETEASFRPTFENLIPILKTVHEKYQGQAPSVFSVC
The target of another assay is JAK3 (Homo sapiens (Human), UniProt P52333). The experiment in a line: JAK Caliper Enzyme Assay at 1 mM ATP (JAK3). Format: biochemical. To be noted: Caliper assay at 1 mM ATP.
Sequence of JAK3 (P52333 whole entry): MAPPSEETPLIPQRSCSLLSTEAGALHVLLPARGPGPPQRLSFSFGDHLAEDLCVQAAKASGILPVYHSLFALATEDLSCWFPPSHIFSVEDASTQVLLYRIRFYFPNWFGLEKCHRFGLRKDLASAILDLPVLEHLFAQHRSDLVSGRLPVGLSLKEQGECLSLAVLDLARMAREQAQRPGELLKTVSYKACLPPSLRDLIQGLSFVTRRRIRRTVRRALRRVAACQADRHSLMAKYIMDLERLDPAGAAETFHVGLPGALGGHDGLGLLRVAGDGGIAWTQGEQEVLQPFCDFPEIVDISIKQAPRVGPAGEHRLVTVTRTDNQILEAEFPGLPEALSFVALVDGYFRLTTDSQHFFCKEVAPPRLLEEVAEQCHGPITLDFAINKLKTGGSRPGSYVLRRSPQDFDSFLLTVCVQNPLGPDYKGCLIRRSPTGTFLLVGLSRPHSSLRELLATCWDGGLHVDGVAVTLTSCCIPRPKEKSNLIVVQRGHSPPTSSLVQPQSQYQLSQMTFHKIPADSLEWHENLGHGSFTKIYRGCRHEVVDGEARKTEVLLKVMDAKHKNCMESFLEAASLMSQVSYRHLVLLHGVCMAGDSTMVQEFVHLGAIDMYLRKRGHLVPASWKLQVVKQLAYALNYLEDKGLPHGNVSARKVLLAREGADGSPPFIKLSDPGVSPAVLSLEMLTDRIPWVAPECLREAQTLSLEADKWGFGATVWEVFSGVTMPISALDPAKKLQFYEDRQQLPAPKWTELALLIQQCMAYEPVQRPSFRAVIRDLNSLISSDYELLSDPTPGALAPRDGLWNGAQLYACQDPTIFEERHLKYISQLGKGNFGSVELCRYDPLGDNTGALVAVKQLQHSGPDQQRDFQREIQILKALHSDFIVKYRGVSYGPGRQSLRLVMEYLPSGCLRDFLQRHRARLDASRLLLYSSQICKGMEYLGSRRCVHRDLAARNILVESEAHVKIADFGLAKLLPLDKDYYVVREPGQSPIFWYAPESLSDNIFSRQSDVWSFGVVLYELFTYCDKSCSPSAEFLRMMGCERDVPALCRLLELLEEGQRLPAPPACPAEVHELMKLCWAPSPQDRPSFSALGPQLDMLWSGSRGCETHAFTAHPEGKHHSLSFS
A further assay has as its target JAK2 (Homo sapiens (Human), UniProt O60674). Nature of the assay: JAK Caliper Enzyme Assay at 1 mM ATP (JAK2). The assay is classed as biochemical. The settings on record: Caliper assay at 1 mM ATP.
The next assay has as its target JAK1 (Homo sapiens (Human), UniProt P23458). Nature of the assay: JAK Caliper Enzyme Assay at 1 mM ATP (JAK1). The assay is classed as biochemical. To be noted: Caliper assay at 1 mM ATP.

Sequence of JAK1 (P23458 whole entry): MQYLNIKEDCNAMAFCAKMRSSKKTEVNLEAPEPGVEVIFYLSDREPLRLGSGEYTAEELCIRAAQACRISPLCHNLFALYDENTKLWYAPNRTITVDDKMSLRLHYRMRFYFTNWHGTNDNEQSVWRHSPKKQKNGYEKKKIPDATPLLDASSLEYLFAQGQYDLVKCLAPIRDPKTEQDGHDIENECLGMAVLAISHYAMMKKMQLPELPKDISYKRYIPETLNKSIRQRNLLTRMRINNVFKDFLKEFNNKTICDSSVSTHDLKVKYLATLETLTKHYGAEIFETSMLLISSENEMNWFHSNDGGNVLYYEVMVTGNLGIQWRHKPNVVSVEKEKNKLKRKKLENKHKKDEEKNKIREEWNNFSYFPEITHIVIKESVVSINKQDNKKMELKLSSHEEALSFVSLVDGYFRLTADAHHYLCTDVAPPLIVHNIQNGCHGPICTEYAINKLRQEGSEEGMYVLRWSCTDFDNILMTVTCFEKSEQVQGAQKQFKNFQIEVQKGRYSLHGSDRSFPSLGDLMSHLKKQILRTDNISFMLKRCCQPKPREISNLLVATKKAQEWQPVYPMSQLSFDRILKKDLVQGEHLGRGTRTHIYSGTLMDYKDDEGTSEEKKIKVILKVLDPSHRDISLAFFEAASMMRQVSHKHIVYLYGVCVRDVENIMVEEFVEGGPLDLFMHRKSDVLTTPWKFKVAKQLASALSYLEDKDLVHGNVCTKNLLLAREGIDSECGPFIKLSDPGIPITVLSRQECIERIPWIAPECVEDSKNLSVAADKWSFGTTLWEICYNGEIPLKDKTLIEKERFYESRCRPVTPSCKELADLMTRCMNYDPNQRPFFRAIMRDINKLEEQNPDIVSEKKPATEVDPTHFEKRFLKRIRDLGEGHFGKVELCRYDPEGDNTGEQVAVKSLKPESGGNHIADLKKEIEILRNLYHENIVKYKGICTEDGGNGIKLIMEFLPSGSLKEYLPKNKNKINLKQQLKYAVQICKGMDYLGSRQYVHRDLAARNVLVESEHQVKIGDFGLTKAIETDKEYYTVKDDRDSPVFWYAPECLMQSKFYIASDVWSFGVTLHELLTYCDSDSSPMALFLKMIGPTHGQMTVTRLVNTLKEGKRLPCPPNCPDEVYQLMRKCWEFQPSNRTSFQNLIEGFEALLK
Sequence of JAK2 (O60674 whole entry): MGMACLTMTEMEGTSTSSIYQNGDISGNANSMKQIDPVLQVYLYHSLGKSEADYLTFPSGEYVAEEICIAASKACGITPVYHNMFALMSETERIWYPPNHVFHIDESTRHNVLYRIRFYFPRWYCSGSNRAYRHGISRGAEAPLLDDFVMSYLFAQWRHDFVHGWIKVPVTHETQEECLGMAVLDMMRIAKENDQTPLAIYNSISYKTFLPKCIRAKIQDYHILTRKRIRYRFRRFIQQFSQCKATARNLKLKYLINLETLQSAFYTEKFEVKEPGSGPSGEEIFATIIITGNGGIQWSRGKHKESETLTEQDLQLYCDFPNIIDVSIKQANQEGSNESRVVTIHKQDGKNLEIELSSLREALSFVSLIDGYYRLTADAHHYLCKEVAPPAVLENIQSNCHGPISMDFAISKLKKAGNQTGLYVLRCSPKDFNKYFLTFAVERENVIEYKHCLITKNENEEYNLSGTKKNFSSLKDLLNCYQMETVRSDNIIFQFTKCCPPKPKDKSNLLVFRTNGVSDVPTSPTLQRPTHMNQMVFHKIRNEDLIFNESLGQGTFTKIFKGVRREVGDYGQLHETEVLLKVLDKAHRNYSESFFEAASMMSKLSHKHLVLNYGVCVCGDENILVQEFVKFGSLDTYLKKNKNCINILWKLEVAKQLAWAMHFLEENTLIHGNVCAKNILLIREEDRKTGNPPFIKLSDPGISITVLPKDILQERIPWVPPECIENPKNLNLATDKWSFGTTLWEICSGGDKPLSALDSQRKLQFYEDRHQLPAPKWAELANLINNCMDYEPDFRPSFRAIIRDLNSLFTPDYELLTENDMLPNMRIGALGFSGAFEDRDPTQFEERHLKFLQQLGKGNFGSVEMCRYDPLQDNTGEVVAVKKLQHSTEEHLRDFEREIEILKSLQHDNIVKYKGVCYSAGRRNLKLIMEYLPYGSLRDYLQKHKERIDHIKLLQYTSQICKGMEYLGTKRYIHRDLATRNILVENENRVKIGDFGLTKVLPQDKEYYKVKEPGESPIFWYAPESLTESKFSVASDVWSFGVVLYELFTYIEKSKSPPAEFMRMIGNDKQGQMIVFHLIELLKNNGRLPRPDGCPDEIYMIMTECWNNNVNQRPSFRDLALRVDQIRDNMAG

In the case of `CCS(=O)(=O)N(C)c1ccccc1CNc1nc(-c2cc(F)c(O)cc2CC(F)(F)F)cc2[nH]nc(C(=O)NC)c12` [Example 13, 4-({2-[(ethylsulfonyl)(methyl)amino]benzyl}amino)-6-[5-fluoro-4-hydroxy-2-(2,2,2-trifluoroethyl)phenyl]-N-methyl-1H-pyrazolo[4,3-c]pyridine-3-carboxamide], the IC50 (usually the concentration that inhibits the measured activity by half) in assay [1] came to 96.7 nM; against TYK2, 35.7 nM; against JAK3, 118 nM; at JAK2 it was 26.6 nM; against JAK1, 5.3 nM.

As to `CNC(=O)c1n[nH]c2cc(-c3cc(F)c(O)cc3CC(F)(F)F)nc(NCc3cc(F)ccc3N(C)S(C)(=O)=O)c12` [Example 14, 6-[5-fluoro-4-hydroxy-2-(2,2,2-trifluoroethyl)phenyl]-4-({5-fluoro-2-[methyl(methylsulfonyl)amino]benzyl}amino)-N-methyl-1H-pyrazolo[4,3-c]pyridine-3-carboxamide], the 50% inhibitory concentration (IC50) was 20.7 nM in assay [1]; 43.2 nM against TYK2; 99.7 nM at JAK3; 20.5 nM against JAK2; 4.2 nM against JAK1.

As to `CCc1cc(O)c(F)cc1-c1cc2[nH]nc(C(=O)NC)c2c(NCc2cc(C)ccc2N(C)S(C)(=O)=O)n1` [Example 21, 6-(2-ethyl-5-fluoro-4-hydroxyphenyl)-N-methyl-4-({5-methyl-2-[methyl(methylsulfonyl)amino]benzyl}amino)-1H-pyrazolo[4,3-c]pyridine-3-carboxamide], the IC50 turned out to be 35.6 nM in assay [1]; 11.4 nM against TYK2; 67.9 nM at JAK3; 13.2 nM against JAK2; 2.7 nM on JAK1.

Regarding `CCc1cc(O)c(F)cc1-c1cc2[nH]nc(C(=O)NC)c2c(NCc2ccccc2N(C)S(=O)(=O)c2ccccc2)n1` [Example 22, 6-(2-ethyl-5-fluoro-4-hydroxyphenyl)-N-methyl-4-({2-[methyl(phenylsulfonyl)amino]benzyl}amino)-1H-pyrazolo[4,3-c]pyridine-3-carboxamide], the IC50 is 52.8 nM in assay [1]; 59.1 nM on TYK2; 359 nM on JAK3; 81.3 nM against JAK2; 17.5 nM against JAK1.

For `CCc1cc(O)c(F)cc1-c1cc2[nH]nc(C(=O)NC)c2c(NCCc2ccc(NS(=O)(=O)c3ccccc3)cc2)n1` [Example 23, 6-(2-ethyl-5-fluoro-4-hydroxyphenyl)-N-methyl-4-[(2-{4-[(phenylsulfonyl)amino]phenyl}ethyl)amino]-1H-pyrazolo[4,3-c]pyridine-3-carboxamide], the IC50 worked out at 51.4 nM in assay [1]; 83.2 nM against TYK2; 111 nM at JAK3; 25.7 nM at JAK2; 5.8 nM against JAK1.

In the case of `CNC(=O)c1n[nH]c2cc(-c3cc(F)c(O)cc3CC(F)(F)F)nc(NCc3ccccc3N(CCO)S(C)(=O)=O)c12` [Example 24, 6-[5-fluoro-4-hydroxy-2-(2,2,2-trifluoroethyl)phenyl]-4-({2-[(2-hydroxyethyl)(methylsulfonyl)amino]benzyl}amino)-N-methyl-1H-pyrazolo[4,3-c]pyridine-3-carboxamide], the IC50 is 226 nM in assay [1]; 29.9 nM at TYK2; 69.6 nM against JAK3; 16.5 nM on JAK2; 2.9 nM on JAK1.

For the compound `CN(c1ccccc1CNc1nc(-c2cc(F)c(O)cc2CC(F)(F)F)cc2[nH]nc(C(N)=O)c12)S(=O)(=O)c1ccccc1` [Example 26, 6-[5-fluoro-4-hydroxy-2-(2,2,2-trifluoroethyl)phenyl]-4-({2-[methyl(phenylsulfonyl)amino]benzyl}amino)-1H-pyrazolo[4,3-c]pyridine-3-carboxamide], the concentration for half-maximal inhibition (IC50) in assay [1] was found to be 124 nM; at TYK2, 218 nM; at JAK3 it was 293 nM; at JAK2, 91.1 nM; at JAK1, 19.9 nM.

As for `CNC(=O)c1n[nH]c2cc(-c3cc(F)c(O)cc3CC(F)(F)F)nc(NCc3ccc(O)cc3N(C)S(C)(=O)=O)c12` [Example 33, 6-[5-fluoro-4-hydroxy-2-(2,2,2-trifluoroethyl)phenyl]-4-({4-hydroxy-2-[methyl(methylsulfonyl)amino]benzyl}amino)-N-methyl-1H-pyrazolo[4,3-c]pyridine-3-carboxamide], the IC50 in assay [1] worked out at 490 nM; at TYK2, 282 nM; against JAK3, 75.2 nM; against JAK2, 25 nM; against JAK1 it was 5.7 nM.

For the compound `CNC(=O)c1n[nH]c2cc(-c3cc(F)c(O)cc3CC(F)(F)F)nc(NCc3cc(O)ccc3N(C)S(=O)(=O)c3ccccc3)c12` [Example 35, 6-[5-fluoro-4-hydroxy-2-(2,2,2-trifluoroethyl)phenyl]-4-({5-hydroxy-2-[methyl(phenylsulfonyl)amino]benzyl}amino)-N-methyl-1H-pyrazolo[4,3-c]pyridine-3-carboxamide], the IC50 in assay [1] is 437 nM; at TYK2 it was 256 nM; against JAK3, 817 nM; at JAK2 it was 249 nM; against JAK1, 39.9 nM.

As for `CNC(=O)c1n[nH]c2cc(-c3cc(F)c(O)cc3CC(F)(F)F)nc(NCc3cc(O)ccc3N(C)S(=O)(=O)c3cccnc3)c12` [Example 54, 6-[5-fluoro-4-hydroxy-2-(2,2,2-trifluoroethyl)phenyl]-4-({5-hydroxy-2-[methyl(pyridin-3-ylsulfonyl)amino]benzyl}amino)-N-methyl-1H-pyrazolo[4,3-c]pyridine-3-carboxamide], the 50% inhibitory concentration (IC50) turned out to be 135 nM in assay [1]; 25.9 nM against TYK2; 123 nM at JAK3; 32.9 nM at JAK2; 6.1 nM against JAK1.

Consider `Cc1cnc(N(C)S(C)(=O)=O)c(CNc2nc(-c3cc(F)c(O)cc3CC(F)(F)F)cc3[nH]nc(C(N)=O)c23)c1` [Example 86, 6-(5-fluoro-4-hydroxy-2-(2,2,2-trifluoroethyl)phenyl)-4-(((5-methyl-2-(N-methylmethylsulfonamido)pyridin-3-yl)methyl)amino)-1H-pyrazolo[4,3-c]pyridine-3-carboxamide], for which the IC50 is 425 nM in assay [1]; 4820 nM against TYK2; 81.7 nM against JAK3; 110 nM on JAK2; 38.4 nM at JAK1.
